Assay results as given in US9771430B2, “Method of treating a metabolic disorder induced by obesity in a subject in need thereof by administering MK2/3 inhibitors” (THE TRUSTEES OF COLUMBIA UNIVERSITY IN THE CITY OF NEW YORK, priority 2011, dated 2017).

Legend:
IP3R = test: IICR in freshly isolated peritoneal cavity macrophages of Xestospongin C-treated ob/ob mice; assay type: in vivo, mouse; settings: treatment of ob/ob mice
From the text: FIGS. 50A-M. The role of IP3R in obesity/insulin resistance induced hyperglycemia and gluconeogenesis. FIG. 50A. Evidence that Xestospongin C Treatment of ob/ob Mice Inhibits IP3R Assay of IICR in Freshly Isolated Peritoneal Cavity Macrophages. FIG. 50B-E. Inhibition of IP3R Reduces Fasting Blood Glucose Levels in ob/ob Mice. FIG. 50F. Inhibition of IP3R Reduces Hepatic Expression of PEPCK, G6Pase, and PGC1α in ob/ob. FIG. 50G-I. Inhibition of IP3R Reduces Expression of PEPCK, G6Pase, and PGC1α in Palmitate-Treated Hepatocytes as a Model of ER Stress and Insulin Resistance. FIG. 50J-K. Inhibition of IP3R Reduces Expression of G6Pase and PEPCK in Akt-Inhibited Hepatocytes as a Model of Insulin Resistance. FIG. 50L. IP3R Activity is Required for Forskolin-Induced TORC2 Dephosphorylation. FIG. 50M. IP3R Activation is Required for TORC2 Nuclear Retention.

[1] = tested on: CRE-luciferase (luc) reporter; test: CRE-luciferase reporter activity in primary hepatocytes; assay type: cell-based, mouse; settings: response to glucagon
Procedure: (§1) HEK293T (ATCC) cells were cultured in DMEM containing 10% FBS (HyClone), […] penicillin-streptomycin. Mouse primary hepatocytes were isolated and cultured as previously described (18). Cellular fractionation studies were conducted as previously reported (18). For reporter studies, Ad-CRE-luc infected hepatocytes (1 pfu per cell) were exposed to glucagon (Gcg, 100 nM) for 2˜4 h. For cyclosporine A (CsA, 10 μM) or okadaic acid (OA, 100 nM) or cell permeable calcineurin autoinhibitory peptide (10 μM) or CN585 (100 μM) or Calyculin A (10 nM) or Xestospongin C (Xc, 2 μM) or H89 (30 μM) or BAPTA (50 μM) inhibition, hepatocytes were pre-treated with the inhibitors for one hour. Luciferase activities were normalized to β-galactosidase activity from adenoviral-encoded RSV β-gal. Calcineurin activity (test kit from Enzo Life Sciences) and cellular cAMP levels (test kit from Cayman Chemical Company) were measured according to manufacturer's instructions.

calcineurin = test: Calcineurin activity in primary hepatocytes; assay type: cell-based, mouse
Procedure: as §1

[2] = tested on: IP3-mediated Ca2+ release; settings: cited from earlier work
cytosolic free calcium = test: Calcium mobilization in primary hepatocytes (Fura-2 imaging); assay type: cell-based, mouse
Procedure: Mouse primary hepatocytes were plated on glass coverslips and loaded with 5 μM Fura-2 acetoxymethyl ester (Molecular Probes) in the presence of 0.025% (w/v) pluronic F127 (Sigma-Aldrich) in Media 199 (Mediatech) for 30 minutes. […] The ratio of fluorescence intensity at the two excitation wavelengths was calculated after subtracting background fluorescence. [Ca2+]I (cytosolic free calcium concentration) was calculated using a Fura-2 calcium imaging calibration kit (Invitrogen). Images were collected and analyzed using the MetaFluor software package (Universal Imaging Corp.). Graphs represent average responses from groups of 30-40 individual cells from representative single experiments. Bar graphs represent average responses (fold over average baseline) from 150-200 cells per condition. All experiments were repeated at least three times with similar results.

Compound	IP3R (IICR) in peritoneal cavity macrophages (IP3R)	CRE-luciferase (luc) reporter activity / activation [1]	calcineurin activation in response to glucagon and forskolin (calcineurin)	selectivity over the skeletal isoform of the ryanodine receptor type 1 (RyR-1) [2]	IC50 ([2]; read-out: IC50, blocker of IP3-mediated Ca2+ release) [µM]	cytosolic calcium mobilization in response to glucagon (and forskolin) (cytosolic free calcium; co-/pre-treatment with inhibitor)	cellular free calcium (cytosolic free calcium; exposure of primary hepatocytes to glucagon)
C1CCC[C@H]2CCCN3CC[C@@H](CCCCCC[C@@H]4CCCN5CC[C@@H](CC1)O[C@@H]45)O[C@@H]23 [Xestospongin C]	Inhibits	blocked	disrupted	high selectivity	0.358	disrupted	
glucagon: hormone used to stimulate hepatocytes and mice							rapid increase
